# Patent publication US20130324543A1, “REVERSAL OF HIGH BREAST CANCER RISK IN MAMMALS EXPOSED TO ESTROGENIC CHEMICALS IN UTERO BY ADULT EXPOSURE TO HDAC AND DNMT INHIBITORS” (Georgetown University, priority 2012, published 2013)
# Entries after “also recorded” stand apart in the source; their conditions may differ.
# Columns and labels:
# [1] = test system: estrogen receptor alpha (ER-a); experiment: ER-a methylation and expression in mammary glands of in utero E2 exposed rats
# Source text: A high in utero estrogenic environment increases the risk of developing breast cancer (FIG. 1). Increased risk is associated with greater epithelial cell proliferation and survival during mammary gland development, driven by persistent changes in the mammary transcriptome. How these transcriptional changes are initiated and maintained is unclear. […] We then determined whether estrogen receptor alpha (ER-a) is methylated in the E2 exposed rats. […] These mechanisms could include non-coding microRNAs (miRNAs) which are essential for early development and which inhibit expression of their target genes. Since several miRNAs are known to be suppressed by E2 in MCF-7 human breast cancer cells (Maillot et al. Cancer Res 2009), we determined whether persistent changes in miRNA expression may be seen in the adult mammary glands of rats exposed to E2 in utero. miRNAs were measured using applied Biosystems TaqManR Array Rodent MicroRNA.
# mammary tumors [2] = experiment: Mammary tumorigenesis in F1 rats exposed to E2 in utero (FIG. 7); assay type: in vivo; details: F1 generation exposed in utero vs controls
# [3] = test system: MCF-7 breast cancer cells; details: MCF-7 cells; cited from earlier work
# mammary gland [4] = experiment: Mammary gland morphology and TEB number after maternal E2 or high fat diet (FIG. 8, 11); assay type: in vivo, rats
# Source text: exposures during pregnancy: […] Statistical analysis was done using ANOVA followed by between group comparisons using Tukey test. […] TEBs are the sites which give rise to malignant mammary tumors in rats; similar structures in the human breast-terminal ductal lobular units-give rise to 90% of human breast cancers.
# mammary tumors [5] = experiment: Acquired tamoxifen (TAM) resistance of mammary tumors in in utero exposed rats; assay type: in vivo; details: 14-week follow-up, 7% in the control group
# PcGTs = experiment: Microarray expression of PcGTs in mammary glands of in utero E2 exposed rats; assay type: in vivo; details: PND 50
# [6] = Immediate adverse effects of dietary exposure in adult non-pregnant littermates of dams; assay type: in vivo, mice; details: last day of dietary exposure, data not shown
# Procedure: For ethical reasons non-pregnant littermate females were used for blood collection instead of the dams, and the samples were taken on the last day of their dietary exposure. Blood was collected by heart puncture of anesthetized mice prior to euthanasia, and serum was separated by centrifugation (1000×g for 10 min) and stored frozen until hormone measurements.
# In addition, possible immediate adverse effects of EE2, BPA and GEN exposure for adult mice were evaluated using the non-pregnant littermates of dams. Their body weights were recorded and the mammary gland morphology examined on the last day of their dietary exposure.
# [7] = Puberty onset (vaginal opening) of female mice exposed in utero; assay type: in vivo, C57BL/6 mice; details: female offspring, in utero exposure
# Procedure: To assess possible changes in sexual maturation due to in utero ECD exposures during embryogenesis, the day of puberty onset was recorded, as defined based on vaginal opening (VO) in female mice. The mice were examined once a day starting on PND 21. In sexually mature mice, the stage of estrus cycle was determined based on the cytology of their vaginal smear (sampled by pipetting 20 μl PBS in and out of vagina onto a slide) as judged under the microscope. Stage of estrus cycle was determined for each mouse before necropsy and sample collection.
# mammary tumors [8] = experiment: MPA/DMBA mammary tumorigenesis in mice exposed in utero to EE2, GEN or BPA (Example 5); assay type: in vivo, C57BL/6 mice
# Source text: (§1) Additions to the basic diet were as follows: 1) cornstarch [control]; 2) EE2 0.1 ppm; 3) BPA 0.155 ppm; 4) GEN 500 ppm.
# mammary gland [9] = experiment: Mammary gland morphology of in utero exposed mice (whole mounts); assay type: in vivo, C57BL/6 mice; details: female mice, PND 27
# Procedure: One of the two #4 abdominal mammary glands was dissected and fixed in Carnoy's fixative and processed into whole mounts as previously described (8). The other #4 abdominal gland was snap frozen in liquid nitrogen and stored in −80° C. for future analysis. One of the two thoracic #2-3 mammary glands was fixed in neutral buffered 10% formalin, embedded in paraffin and processed for histology using routine methods, and the other was snap frozen in liquid nitrogen, also stored in −80° C. for future analysis. Uterus was dissected, and one horn with the ovary and vagina attached was fixed in 10% formalin, embedded in paraffin and processed for histology, and the other horn and one ovary were frozen in liquid nitrogen and stored in −80° C.
# To assess possible changes in mammary gland morphology, whole amounts of the 4th abdominal glands obtained on PND 27 were processed as previously described (4, 72). The total number of terminal end buds (TEBs) was counted. Identification of TEBs was based on the guidelines established by Russo and Russo (64). The total area (in pixels) of epithelium of the peripubertal (PND 27) mammary glands was analyzed by using ImageJ software (available through NIH web site) on digitized pictures of mammary whole mounts with ducts manually intensified black against white background (shown as an insert in FIG. 16). Ductal elongation (mammary epithelial outgrowth) on PND 50 was measured as the growth in millimeters from the end of the lymph node to the end of the epithelial tree. All the analyses were done blindly using an Olympus dissecting microscope.
# DNMT1 = DNMT1 mRNA expression (qRT-PCR) in mouse mammary glands and tumors; assay type: in vivo; details: in utero exposure vs control mice
# Source text: Total RNA was extracted using an RNeasy lipid mini kit (Qiagen, CA), according to manufacturer's instructions. One […] of total RNA per sample was used as a template for oligo-dT primed cDNA synthesis with a Supterscript reverse transcriptase, using Taqman Reverse Transcription kit (Applied Biosystems, CA). The cDNA samples served then as templates for quantitative real time PCR analysis with specific primers for the target gene using QuantiTect SYBR green PCR kit (Qiagen Inc., Valencia, Calif.) and an ABI Prism 7900 Sequence Detection System. Each sample was run in triplicate on a 384-well plate, and the qPCR run was repeated twice. The Ct values were averaged from the triplicates for each sample. To normalize the target gene expression the ratio to control RNA was calculated, i.e. the averages of the Ct triplicates from the Dnmt1 gene were divided by the average of the triplicates from the 18S gene. To determine the fold change of the target gene expression the results are presented as 2^ΔCt, where ΔCt=CT^target−Ct^18S.
# The primer sequences for m18S rRNA were as previously published by Wang et al. (27).
# (§2) Mammary tumor latency was compared with the final tumor burden in utero EE2 and GEN exposed mice to control mice, and in utero EE2 and GEN exposed mice to control mice exposed to HDAC+DNMT inhibitors separately; analysis was done using one-way ANOVA. Cumulative tumor burden during 16 weeks of tumor monitoring in the three groups, separately in those mice not given HDAC+DNMT inhibitors and those treated with the epigenetic drugs, was analysed using repeated measures one-way ANOVA. Log rank analysis was performed to compare mammary tumor incidence in the control and in utero EE2 and GEN exposed mice, again separately in those mice not given HDAC+DNMT inhibitors and those treated with the epigenetic drugs. Data for changes in DNMT1 expression among the groups in the mammary glands and tumors were assessed using two-way ANOVA, followed by Fisher LSD test
# [10] = Body weight and growth of in utero exposed pups; assay type: in vivo, C57BL/6 mice; details: in utero exposure
# Source text: as §1
# mammary tumors [11] = experiment: MPA/DMBA-induced mammary tumorigenesis in mice exposed in utero to EE2 or GEN, with or without adult HDAC+DNMT inhibitors
# Procedure: Time pregnant C57BL/6 female mice were obtained from Harlan (Harlan-Teclad, USA) on gestation day 6, and were randomly assigned into three groups on the following day (gestation day 7). The basic diet formulation in the study was a semi-purified AIN93G (the American Institute of Nutrition) modified to replace soy oil for corn oil; all the diets of the three treatment groups were also purchased from Harlan. The diets were isocaloric, as ethinyl estradiol (EE2) or genistein (GEN) were added in the diet at the expense of comstarch. Additions to the basic diet were as follows: 1) EE2 0.1 ppm, and 2) GEN 500 ppm. EE2 was purchased from Sigma Chemicals (St. Louis, Mo., USA), and GEN was a gift from Dr. William Helferich (University of Illinois, Urbana, Ill., USA).
# The pregnant dams were fed these diets until the day of the delivery of their pups (Post Natal Day 0, PND 0). Starting on PND 0, all mice were fed the control diet until the end of the study. Female mice born from the dams fed with the different above mentioned diets were used in the subsequent studies. For study outline, see FIG. 12. Animals were housed in a temperature- and humidity-controlled room under a 12-hour light-dark cycle. All animal procedures were approved by the Georgetown University Animal Care and Use Committee, and the experiments were performed following the National Institutes of Health guidelines for the proper and humane use of animals in biomedical research.
# Mammary tumors were induced by administration of a subcutaneous injection of Medroxyprogesterone Acetate (MPA) to mice at 6 weeks of age, followed by administration of 1 mg 7,12-dimethylbenz(a)anthracene (DMBA) (Sigma, St. Louis, Mo.) weekly for four weeks (weeks 7, 8, 9, 10) (23). The carcinogen was dissolved in corn oil and administered by oral gavage in a volume of ca. 0.1 ml.
# One week after the last dose of DMBA was administered, some of the mice were started on hydralazine (5 mg/kg/day) and valproic acid treatments (1.16 g/kg/day) treatments.
# The two compounds were given in a drinking water, which was prepared fresh twice a week. The doses were chosen based on the literature (24-26). The number of animals in each group is as follows: Control n=18, Control given HDAC+DNMT inhibitors n=9, EE2 n=9, EE2 given HDAC+DNMT inhibitors n=6, GEN n=14, and GEN given HDAC+DNMT inhibitors n=8.
# Mice were examined for mammary tumors by palpation once per week. Tumor growth was monitored for 16 weeks after the last dose of DMBA administration. During the follow-up, animals in which tumor burden approximated 10% of total body weight were euthanized, as required by the ethical guidelines of our institution. All surviving animals were sacrificed at that point for sample collection. The end-points for tumor data analysis were (i) latency to tumor appearance, (ii) the number of animals with tumors (tumor incidence), and (iii) the cumulative tumor area (tumor burden). The latter was achieved by adding the total tumor area per group each week and dividing it with the number of mice in the group.
# as §2
smiles,measurement,setting,value
"C[C@]12CC[C@@H]3c4ccc(O)cc4CC[C@H]3[C@@H]1CC[C@@H]2O [E2, estradiol]",expression of ER-a,[1],up-regulated
same,Mammary tumor incidence,mammary tumors [2],higher
same,total tumor burden,mammary tumors [2],also higher
same,tumor multiplicity,mammary tumors [2],also higher
same,expression of the same miRNAs,[3],down-regulated
same,number of TEBs,"mammary gland [4]; 1st generation offspring, postnatal day 21",increased
same,"mammary gland morphology (parenchyma, TEBs, ductal elongation, size)",mammary gland [4]; 21-day-old rats exposed to 10 μg in utero vs control rats,"contain a larger parenchyma and more TEBs, exhibit more advanced ductal elongation, and are larger"
same,acquired resistance to TAM,mammary tumors [5],50%
same,Fold down-regulated in E2 group,"PcGTs; Actn1, alpha 1 actin",−5.63 (p < 0.03) Fold
same,Fold down-regulated in E2 group,"PcGTs; Ccl2, chemokine (C-C motif) ligand 2",−1.81 (0.00) Fold
same,Fold down-regulated in E2 group,"PcGTs; Ckm, muscle creatine kinase",−7.68 (p < 0.01) Fold
same,Fold down-regulated in E2 group,"PcGTs; H19/Pro2605, H19fetal liver mRNA (imprinted gene)",−3.28 (p < 0.03) Fold
same,Fold up-regulated in E2 group,"PcGTs; Hmgcs2, 3-hydroxy-3-methylglutaryl-Coenzyme A synthase 2",2.46 (p < 0.00) Fold
same,Fold up-regulated in E2 group,"PcGTs; Lep, Leptin",1.59 (p < 0.02) Fold
same,Fold down-regulated in E2 group,"PcGTs; Myh13, heavy polypeptide 13 myosin",−6.08 (p < 0.01) Fold
same,Fold down-regulated in E2 group,"PcGTs; Myl2, light polypeptide 2 myosin",−10.19 (p < 0.02) Fold
same,Fold up-regulated in E2 group,"PcGTs; Pdk4, puruvate dehydrogenase kinase isoenzyme 4",1.82 (p < 0.02) Fold
same,Fold down-regulated in E2 group,"PcGTs; Pvnlb, parvalbumin",−8.64 (p < 0.03) Fold
"CC(C)(c1ccc(O)cc1)c1ccc(O)cc1 [BPA, Bisphenol A]",body weight or mammary epithelial development,[6],No significant differences
same,puberty onset / vaginal opening,[7],no effect
same,cumulative tumor burden compared to the group exposed to control diet in utero,"mammary tumors [8]; C57BL/6, mouse, in vivo",~1.5 times
same,mammary tumorigenesis (onset of tumor growth and cumulative tumor burden),"mammary tumors [8]; mouse, in vivo",Enhanced mammary tumorigenesis
same,total epithelial area of the glands,mammary gland [9],significantly increased
"O=c1c(-c2ccc(O)cc2)coc2cc(O)cc(O)c12 [GEN, Genistein]",DNMT1 expression in mammary tumors,DNMT1,significantly lower
same,expression of DNMT1 in mammary glands,DNMT1,a similar increase; also recorded: an increase in DNMT1 expression; also recorded: persistent up-regulation
same,body weight or mammary epithelial development,[6],No significant differences
same,"birthweight, or postnatal weight development",[10],did not alter
same,puberty onset / vaginal opening,[7],delayed vaginal opening
same,puberty onset / vaginal opening,[7]; listed as genistein,delayed puberty onset
same,cumulative tumor burden compared to the group exposed to control diet in utero,mammary tumors [8]; in utero exposure,approximately four
same,mammary tumorigenesis (onset of tumor growth and cumulative tumor burden),mammary tumors [8]; in utero exposure compared to controls,Enhanced mammary tumorigenesis
same,mammary tumorigenesis,mammary tumors [11]; in utero exposed offspring compared to the controls,increased mammary tumorigenesis
same,Latency for first tumor to develop,mammary tumors [11]; in utero exposure (EE2 0.1 ppm or GEN 500 ppm in dam's diet) vs control mice,significantly shorter
same,Mammary tumor incidence,mammary tumors [11]; in utero exposure vs control mice,significantly higher
same,Final tumor burden per mouse,mammary tumors [11]; in utero exposure vs controls,significantly higher
same,total epithelial area of the glands,mammary gland [9],nearly significantly increased
